Series [1] is described as follows: Evaluation of acute toxicity, fixed dosage test, 14-day observation. It counts as in vivo, mice. The following applies: one dose intraperitoneally. The procedure:
The concentration of cyclopalladated compounds of the invention as used in this study is being determined from the realization of a fixed dosage test, in which the substance to be tested is given to mice under specific dosage, which is selected from previously fixed dosages, according to classifications from ruling institutions, for which the maximum concentration to be tested should not surpass 2000 mg/kg.
After drug administration, a 14-day observation period follows. The dosage under which signs of acute toxicity are observed, such as changes in hair, mucosa and skin, as well as the occurrence of diarrhea and convulsions, conjunctivitis, excitement or slow movements, is used to graduate or classify the tested material.
Assayed compounds are diluted in saline containing 10% DMSO and then 0.2 ml of that solution are intraperitoneally given to the animals. Therefore, groups of 10 animals (5 males and 5 females) were treated with various doses of the compounds being studied. The control animals received only saline with 10% DMSO. After the end of the treatment, the animals remained in observation for a period of 14 days.

A further series has as its system HL60 cells. Put plainly: Morphological aspect of treated HL60 cells. The class given is cell-based. Conditions: 72 hours. An excerpt: From the results obtained by experiments as illustrated by Example 11, we verified cytotoxic activity of the cyclopalladated compounds in both studied lines, with results obtained from the two compounds being similar (FIGS. 10 and 11). […] On the other hand, the morphological aspect of leukemic cells HL60 treated with cyclopalladated compounds is that of cells in scheduled cell death process or apoptosis, as illustrated by FIG. 12.

A further series has as its system Ehrlich's ascitic tumor. The series can be described thus: Life extension of animals with Ehrlich's ascitic tumor. It counts as in vivo, mice. Conditions: 1 mg/kg subcutaneously, four consecutive days, start 72 hours after inoculation. From the text: With the purpose to observe a possible protection of treated animals with the compounds of the invention, a life extension curve was drafted, considering animals with the Ehrlich's ascitic tumor, be them treated or not.
The Life Extension Curve of Kaplan-Meier was used to analyse the possibility of survival. The comparison between both groups (holders of tumor vs. holders of tumor/treated) was made by the Log-Rank method—non-parametrical procedures (Cox-Mantel). ANOVA variation analysis was used for the analysis of various groups. In case of significant difference, the Tukey's test was applied. In cases in which the number of samples between two groups was small, the Wilcoxon's non-parametrical test was used.
To develop the Ehrlich's ascitic tumor, mice are intraperitoneally inoculated with 0.1 ml of a suspension of tumor cells containing 10^6 cells, originating from the peritoneal cavity of holder mice. After taking out the ascitic liquid from the peritoneum of mice holding the tumor of Ehrlich, the number and viability of cells are determined by using trypan blue colorant in a Neubauer chamber.
With the purpose to observe possible protection of treated animals with the compounds [Pd2(C^2,N-S-dmpa)2(μ-dpp)Cl2] e [Pd2(C^2,N-S-dmpa)2(μ-dppf)(N3)2] (as per scheme C shown in generic structures), a life extension curve was made. […]

In the next series the target is T1, ACE (Mus musculus, UniProt P09470).
T1 construct: host or cells: mouse plasma, in vivo
T1 sequence (P09470 35-1312): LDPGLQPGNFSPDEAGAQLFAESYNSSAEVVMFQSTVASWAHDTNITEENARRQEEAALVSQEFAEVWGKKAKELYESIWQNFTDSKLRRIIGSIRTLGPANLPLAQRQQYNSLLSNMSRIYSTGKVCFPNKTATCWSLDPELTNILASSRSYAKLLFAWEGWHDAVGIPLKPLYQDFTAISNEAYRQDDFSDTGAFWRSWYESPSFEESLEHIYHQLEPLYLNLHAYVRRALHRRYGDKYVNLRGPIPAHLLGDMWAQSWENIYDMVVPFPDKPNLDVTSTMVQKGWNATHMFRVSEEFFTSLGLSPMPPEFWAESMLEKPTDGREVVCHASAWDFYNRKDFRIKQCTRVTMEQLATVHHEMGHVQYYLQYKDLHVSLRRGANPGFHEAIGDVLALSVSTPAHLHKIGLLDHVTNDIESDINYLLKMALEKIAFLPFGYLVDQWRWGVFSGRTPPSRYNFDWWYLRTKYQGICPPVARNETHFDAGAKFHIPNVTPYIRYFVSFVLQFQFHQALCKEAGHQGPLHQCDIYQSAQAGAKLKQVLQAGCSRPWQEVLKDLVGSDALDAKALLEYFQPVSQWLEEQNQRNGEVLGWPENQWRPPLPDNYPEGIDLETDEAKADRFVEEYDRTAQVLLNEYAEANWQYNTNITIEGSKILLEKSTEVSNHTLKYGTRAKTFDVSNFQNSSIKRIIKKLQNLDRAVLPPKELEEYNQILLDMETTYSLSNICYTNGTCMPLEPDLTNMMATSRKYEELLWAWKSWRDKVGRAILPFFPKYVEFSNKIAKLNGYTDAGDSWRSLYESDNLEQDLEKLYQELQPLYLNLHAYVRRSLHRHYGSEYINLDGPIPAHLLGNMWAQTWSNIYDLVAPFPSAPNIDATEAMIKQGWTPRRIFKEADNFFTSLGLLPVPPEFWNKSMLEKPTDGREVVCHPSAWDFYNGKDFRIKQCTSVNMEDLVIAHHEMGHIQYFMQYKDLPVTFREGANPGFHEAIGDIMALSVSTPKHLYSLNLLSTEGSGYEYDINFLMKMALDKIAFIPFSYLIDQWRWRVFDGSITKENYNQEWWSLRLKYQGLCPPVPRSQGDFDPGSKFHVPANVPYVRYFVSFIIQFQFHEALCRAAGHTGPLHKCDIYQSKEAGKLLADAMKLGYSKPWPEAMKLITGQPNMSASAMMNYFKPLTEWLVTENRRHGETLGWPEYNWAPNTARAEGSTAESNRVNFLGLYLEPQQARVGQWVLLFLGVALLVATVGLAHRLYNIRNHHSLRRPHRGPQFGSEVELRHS
Conditions: administration one hour after radiation; cited from earlier work.

The next series has as its target T2, Cathepsin B (Homo sapiens, UniProt P07858).
T2 construct: purchased Calbiochem Co
Put plainly: Cathepsin B endopeptidase activity, hydrolysis of fluorogenic substrate Z-Phe-Arg-MCA (spectrofluorimetry). It counts as biochemical. The following applies: for Ki: pH 6.4, 37° C., substrate Z-Phe-Arg-MCA. The procedure:
Cathepsin B and papain were supplied by the company Calbiochem Co. and the concentration of active enzymes was determined by titulation using the cysteine-protease inhibitor known as E-64. Cathepsin B and papain were packed at 4° C. within 50 mM in sodium acetate buffer (pH 5.0) containing 10 μM MMTS. The fluorogenic substrate amidomethylcoumaryl Z-Phe-Arg-MCA, tripsin and the irreversible papain inhibitor E-64 were supplied by Sigma.
The influence of the organometal compounds on the activity of endopeptidase cathepsin B was determined by spectrofluorimetry, using the fluorogenic substrate Z-Phe-Arg-MCA. This peptide is a good substrate for cathepsin B with kcat/Ks=4.5 10^5 M^−1.s^−1 and was chosen so to locate residues Phe and Arg in P2 and P1, respectively. The substrate covers the main linkage sites S2, S1 and S′1 with cysteine-proteases similar to papain (Turk, D. et al, Revised definition of substrate binding sites of papain-like cysteine proteases, J. Biol. Chem.; 1998, 379, 137-147).
The intensities of fluorescence signals were monitored by a thermostatic spectrofluorimetry Hitachi F-2000. Wavelength was calibrated at 380 nm for excitation and 440 nm for emission. The activation of the enzyme was made by incubation for five minutes at 37° C. in a buffer solution of 50 mM sodium phosphate (pH 6.4) containing NaCl 200 mM, EDTA 1 mM and DTT 2 mM. Measurements were taken in the same activation buffer of cathepsin B and kynetic standards were set up by taking the initial hydrolysis rate under various concentrations of the substrate in the presence or absence of different concentrations of organometal compounds. The results were analysed by non-linear regression by using the software GraFit 3.01 (Erithacus Software Ltd.).
The Kynetic model of Scheme 1 describes the effect of heparin over the hydrolysis of Z-Phe-Arg-MCA by cathepsin B:
In which S represents the substrate Z-Phe-Arg-MCA; I represents the cyclometal compound; E represents cathepsin B; KS represents the dissociation constant of the substrate; KI represents the apparent dissociation constant of the organometal; α is a disturbance standard of KS; and β is a disturbance standard of Vmax (kcat), with the standards being in accordance to the equation: […]
Data were treated according to Equation 1, by using non-linear regression and the values for the constants were calculated. […] The hydrolysis rate of the second order substrates was the same, kcat/Ks=4.5 10^5 M^−1s^−1, in the presence or absence of [Pd (C^2,N-(R+dmpa)(dppf)]N3.

Like-named read-outs stand apart in the source and are kept apart here.

Take `C[C@H]1c2cccc[c]2[Pd-2]([Cl])([P+](c2ccccc2)(c2ccccc2)[c-]2cccc2)[N+]1(C)C.C[C@H]1c2cccc[c]2[Pd-2]([Cl])([P+](c2ccccc2)(c2ccccc2)[c-]2cccc2)[N+]1(C)C.[Fe+2]` (stereo partly drawn) [4a, [Pd2(C^2,N-S-dmpa)2(μ-dppf)Cl2]]: in series [1] (500 mg/kg), the Signs and symptoms entry is “Lack of acute toxicity signs”.

Regarding `C[C@@H]1c2cccc[c]2[Pd-2]([Cl])([P+](c2ccccc2)(c2ccccc2)[c-]2cccc2)[N+]1(C)C.C[C@@H]1c2cccc[c]2[Pd-2]([Cl])([P+](c2ccccc2)(c2ccccc2)[c-]2cccc2)[N+]1(C)C.[Fe+2]` (stereo partly drawn) [4b, [Pd2(C^2,N-R+ dmpa)2(μ-dppf)Cl2]], the Signs and symptoms result in series [1] (10 mg/kg, listed as R(^+)dmpa Cl^− dppf (1:1), 10 mg/kg) was “Signs of conjunctivitis”.

For `C[C@H]1c2cccc[c]2[Pd-2]([Cl])([P+](c2ccccc2)(c2ccccc2)[c-]2cccc2)[N+]1(C)C.[Fe+2].c1ccc(P(c2ccccc2)[c-]2cccc2)cc1` (stereo partly drawn) [[Pd(C^2,N-(S-dmpa)(dppf)Cl]], the “morphological aspect of treated HL60 cells” value in the series with HL60 cells was “aspects of an apoptosis cell”. Further, in the series on Ehrlich's ascitic tumor, the “life extension of animals holding the ascitic tumor of Ehrlich” value was “increased the life extension”.

As for `NCCCC[C@H](N[C@@H](CCc1ccccc1)C(=O)O)C(=O)N1CCC[C@H]1C(=O)O` [lisinopryl], the “inhibition of murine plasma activity for ACE” value on ACE was 100%.

For the compound [Pd(C^2,N-(R+dmpa)(dppf)]N3 [2a], on Cathepsin B, the “inhibition of Cathepsin B” value came out at 81%, the “product formation constant reduced to” value was 36, the “reduction of kcat in the presence of the compound” value is reported as 5.6 times and the “α (disturbance standard of KS)” value is 0.19±0.02. Besides, at Cathepsin B, the “β (disturbance standard of Vmax, kcat)” value worked out at 0.18±0.02 and the β/α worked out at 1.1±0.1. The “increase of the affinity between Cathepsin B and the substrate Z-Phe-Arg-MCA” value at Cathepsin B (in the presence of the compound) was found to be 5.3 time. In addition, the Ki on Cathepsin B (read-out: dissociation constant KH, compound linked to free Cathepsin B (E)) is 12 ± 1 µM. Further, the Ki at Cathepsin B (read-out: dissociation constant αKH, compound linked to the enzyme-substrate (ES) complex) stood at 2.4 ± 0.3 µM. Moreover, the “Ks value in the presence of the organometal compound” value at Cathepsin B (reduced from 110±15 without compound) came to 21 ± 2 µM.

(Values after US7432403B2, “Cyclic palladium compounds having coordinated thereto bis (diphenylphosphine) ferrocene ligands which inhibit the activity of proteins and enzymes and treatment of diseases and disorders associated therewith” (Fundação De Amparo À Pesquisa Do Estado de São Paulo, priority 2002, dated 2008).)
